Active and inactive are the calls of the source. The rule behind the calls is not given here.
Key:
[1] = target: T1, Cannabinoid receptor 2 (Homo sapiens, UniProt P34972); assay: Displacement of [3H]CP-55940 from human CB2 receptor
[2] = target: Cannabinoid receptor 2 (Mus musculus, UniProt P47936); assay: Displacement of [3H]CP-55940 from mouse CB2 receptor
[3] = target: T2, Cannabinoid receptor 1 (Homo sapiens, UniProt P21554); assay: Displacement of [3H]CP-55940 from human CB1 receptor
[4] = target: T1, Cannabinoid receptor 2; assay: Agonist activity at human CB2 in CHO cells assessed as inhibition of cAMP production; format: functional, cell-based
[5] = target: Cannabinoid receptor 1 (Mus musculus, UniProt P47746); assay: Displacement of [3H]CP-55940 from mouse CB1 receptor
Sequence of Cannabinoid receptor 1 (Mus musculus, UniProt P47746) (P47746 whole entry): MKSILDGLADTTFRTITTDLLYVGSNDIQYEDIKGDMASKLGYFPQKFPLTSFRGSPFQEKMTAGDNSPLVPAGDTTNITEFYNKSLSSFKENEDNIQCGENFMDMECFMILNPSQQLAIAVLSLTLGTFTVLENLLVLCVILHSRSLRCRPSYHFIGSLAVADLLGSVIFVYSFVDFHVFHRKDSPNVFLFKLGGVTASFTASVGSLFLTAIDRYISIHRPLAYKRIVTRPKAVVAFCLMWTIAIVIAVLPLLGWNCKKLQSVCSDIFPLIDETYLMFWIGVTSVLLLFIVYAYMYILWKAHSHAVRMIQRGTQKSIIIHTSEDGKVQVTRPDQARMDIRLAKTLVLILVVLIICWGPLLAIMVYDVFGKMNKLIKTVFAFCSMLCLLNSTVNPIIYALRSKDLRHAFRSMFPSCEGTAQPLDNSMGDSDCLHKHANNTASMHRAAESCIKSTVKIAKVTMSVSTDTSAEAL

[6] = target: T2, Cannabinoid receptor 1; assay: Agonist activity at human CB1 in CHO cells assessed as inhibition of cAMP production; format: functional, cell-based
[7] = Clearance in rat at 2 mg/kg, iv or 30 mg/kg, po; format: ADME, organism-based; conditions: in vivo
[8] = AUC in rat at 30 mg/kg, po; format: ADME, organism-based; design: dose 30 mg/kg, route oral; conditions: plasma
[9] = system: Mus musculus; assay: Analgesic activity in sc dosed ICR mouse right hind paw of assessed as formalin induced licking; format: functional, organism-based
[10] = system: Mus musculus; assay: Analgesic activity in sc dosed ICR mouse right hind paw in presence of SR-144528 assessed as inhibition of formalin induced licking; format: functional, organism-based
[11] = Bioavailability in rat at 30 mg/kg, po; format: ADME, organism-based; conditions: in vivo
[12] = Half life in rat at 2 mg/kg, iv or 30 mg/kg, po; format: ADME, organism-based; conditions: in vivo

Sequence of Cannabinoid receptor 2 (Mus musculus, UniProt P47936) (P47936 whole entry): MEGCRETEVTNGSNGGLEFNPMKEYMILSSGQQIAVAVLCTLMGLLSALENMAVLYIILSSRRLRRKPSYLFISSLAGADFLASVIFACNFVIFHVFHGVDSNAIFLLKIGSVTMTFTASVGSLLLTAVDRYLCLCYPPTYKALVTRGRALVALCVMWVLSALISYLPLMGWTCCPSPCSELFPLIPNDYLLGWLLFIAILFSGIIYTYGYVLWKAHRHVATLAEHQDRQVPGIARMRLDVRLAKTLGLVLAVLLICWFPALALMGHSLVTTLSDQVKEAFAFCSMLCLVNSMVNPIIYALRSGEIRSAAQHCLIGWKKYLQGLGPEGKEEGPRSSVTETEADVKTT
T2 sequence (P21554 whole entry): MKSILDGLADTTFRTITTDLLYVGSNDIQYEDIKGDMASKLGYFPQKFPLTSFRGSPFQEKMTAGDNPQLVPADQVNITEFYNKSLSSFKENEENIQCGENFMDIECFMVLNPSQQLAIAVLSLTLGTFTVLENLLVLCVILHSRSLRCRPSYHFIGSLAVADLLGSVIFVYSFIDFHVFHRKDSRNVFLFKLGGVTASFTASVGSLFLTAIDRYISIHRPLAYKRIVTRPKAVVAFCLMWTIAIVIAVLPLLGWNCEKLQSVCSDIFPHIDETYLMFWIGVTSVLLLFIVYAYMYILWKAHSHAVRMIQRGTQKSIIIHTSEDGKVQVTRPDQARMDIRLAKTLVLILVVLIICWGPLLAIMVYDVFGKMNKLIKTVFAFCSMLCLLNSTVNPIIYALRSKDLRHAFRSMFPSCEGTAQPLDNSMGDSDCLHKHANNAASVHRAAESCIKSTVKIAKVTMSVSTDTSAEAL
T1 sequence (P34972 whole entry): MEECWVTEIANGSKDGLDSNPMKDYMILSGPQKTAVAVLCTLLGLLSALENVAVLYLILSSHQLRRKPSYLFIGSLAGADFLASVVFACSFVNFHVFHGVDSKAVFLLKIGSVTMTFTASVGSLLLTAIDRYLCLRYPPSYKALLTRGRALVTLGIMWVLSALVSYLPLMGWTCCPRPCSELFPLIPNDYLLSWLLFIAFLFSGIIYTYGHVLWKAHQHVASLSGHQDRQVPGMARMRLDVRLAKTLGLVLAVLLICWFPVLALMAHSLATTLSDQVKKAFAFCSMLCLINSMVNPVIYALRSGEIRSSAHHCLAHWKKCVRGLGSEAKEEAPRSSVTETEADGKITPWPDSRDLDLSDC

CSC(=S)N1/C(=N/c2ccccc2C(C)C)SCCC1C (stereo unspecified)
Ki [1]: > 5000 nM

CSC(=S)N1CC(C)(C)CS/C1=N\c1ccccc1F
Ki [1]: 252 nM

CSC(=S)N1CC(C)(C)CS/C1=N\c1ccccc1-c1ccccc1
Ki [1]: 989 nM

CCc1ccccc1/N=C1\SCC(C)(C)CN1C(=S)SC
Ki [1]: 54 nM

CSC(=S)N1CC(C)(C)CS/C1=N\c1ccccc1C(F)(F)F
Ki [1]: 141 nM

CSC(=S)N1CC(C)(C)CS/C1=N\c1ccccc1C
Ki [1]: 202 nM

CCOC(=O)N1CC(C)(C)CS/C1=N\c1ccccc1C(C)C
Ki [2]: 187 nM | Ki [3]: > 5000 nM | IC50 [4]: 322 nM | Ki [5]: > 5000 nM | Ki [1]: 428 nM | IC50 [6]: > 5000 nM

CCCSC(=S)N1CC(C)(C)CS/C1=N\c1ccccc1C(C)C
Ki [1]: 119 nM

CC(C)c1ccccc1/N=C1\SCC(C)(C)CN1Cc1ccccc1
Ki [1]: 1360 nM

CCCc1ccccc1/N=C1\SCC(C)(C)CN1C(=S)SC
Ki [1]: 57 nM

CSC(=S)N1CCCS/C1=N\c1ccccc1C(C)C
Ki [1]: 1580 nM

CC(C)c1ccccc1/N=C1/NCC(C)(C)CS1
Ki [1]: > 5000 nM

CSC(=S)N1CC(C)(C)CS/C1=N\c1cccc(C(C)C)c1
Ki [1]: 33 nM

CSC(=S)N1CC(C)(C)CS/C1=N\c1ccc(C(C)C)cc1
Ki [1]: 22 nM

CSC(=S)N1CCC(C)S/C1=N\c1ccccc1C(C)C (stereo unspecified)
Ki [1]: > 5000 nM

CSC(=S)N1CC(C)CS/C1=N\c1ccccc1C(C)C (stereo unspecified)
Ki [1]: 98 nM

CCN1CC(C)(C)CS/C1=N\c1ccccc1C(C)C
Ki [1]: 4880 nM

CCCN1CC(C)(C)CS/C1=N\c1ccccc1C(C)C
Ki [1]: 915 nM

CSC(=S)N1CC(C)(C)CS/C1=N\c1ccccc1Oc1ccccc1
Ki [1]: 2920 nM

CCC(=O)N1CC(C)(C)CS/C1=N\c1ccccc1C(C)C
Ki [1]: 2090 nM

CSC(=S)N1CC(C)(C)CS/C1=N\c1ccccc1Cl
Ki [1]: 722 nM

CSC(=S)N1CC(C)(C)CS/C1=N\c1ccccc1C(C)C
Ki [2]: 9 nM | clearance [7]: 83.3 mL/min/kg | Ki [3]: > 5000 nM | AUC [8]: 1100 ng·h/mL | IC50 [4]: 6.1 nM | Activity [9]: Active | Ki [5]: 2020 nM | Activity [10]: inactive | bioavailability [11]: 18% | Ki [1]: 9 nM | IC50 [6]: > 5000 nM | half-life [12]: 36 min

COc1ccccc1/N=C1\SCC(C)(C)CN1C(=S)SC
Ki [1]: 18 nM

CCSC(=O)N1CC(C)(C)CS/C1=N\c1ccccc1C(C)C
Ki [1]: 48 nM

CC(C)SC(=S)N1CC(C)(C)CS/C1=N\c1ccccc1C(C)C
Ki [1]: 275 nM

Cc1c(C(=O)c2cccc3ccccc23)c2cccc3c2n1[C@H](CN1CCOCC1)CO3 [WIN-552122]
Ki [2]: 6 nM

CCOc1ccccc1/N=C1\SCC(C)(C)CN1C(=S)SC
Ki [1]: 84 nM

CCOC(=S)N1CC(C)(C)CS/C1=N\c1ccccc1C(C)C
Ki [1]: 230 nM

CCNC(=O)N1CC(C)(C)CS/C1=N\c1ccccc1C(C)C
Ki [1]: > 5000 nM

CCSC(=S)N1CC(C)(C)CS/C1=N\c1ccccc1C(C)C
Ki [1]: 35 nM

CSC(=S)N1CC(C)(C)CS/C1=N\c1c(C)cccc1C
Ki [1]: > 5000 nM

CSC(=S)N1CC(C)(C)CS/C1=N\c1ccccc1Br
Ki [1]: 371 nM

CSC(=S)N1CC(C)(C)CS/C1=N\c1ccccc1
Ki [1]: 316 nM

CSC(=S)N1CC(C)(C)CS/C1=N\c1ccccc1C(C)(C)C
Ki [1]: 313 nM

CCNC(=S)N1CC(C)(C)CS/C1=N\c1ccccc1C(C)C
Ki [1]: > 5000 nM
